According to PubChem BioAssay AID1963428 (Molecular Pharmacology Branch, DTP, NCI, 2024):

Test system: 171881-019-R-J1-PDC complex spheroid growth, % test/control
Assay: Anticancer human tumor 171881-019-R-J1-PDC patient-derived invasive breast carcinoma cell line growth inhibition [Asc]
Conditions: for IC50: curve of first compound; for viability, T/C: stronger effect = lower value
Summary of the method: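 Tumor cells were grown as multicellular spheroids with stromal HUVEC and mesenchymal stem cells and treated singly or in combination. Concentrations fell in half-log steps from the clinical Cmax, or from 10 microM where none was known.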
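Wherever viability, T/C is given: spheroids exposed to compounds for 7 days.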

Compound: Cc1nc(N2CCC3(CC2)COC(C)C3N)c(CO)nc1Sc1ccnc(N)c1Cl (stereo not given) + Cc1c(S(C)(=O)=O)c(-c2cc(F)cc(N3CCN(c4ccc(NS(=O)(=O)c5ccc(NC(CCN6CCC(C(=O)OCCCP(=O)(O)O)CC6)CSc6ccccc6)c(S(=O)(=O)C(F)(F)F)c5)cc4)CC3)c2)c(-c2ccc(Cl)cc2)n1C(C)C
- IC50 (second compound 0.1 µM): > 3000 nM
- IC50 (second compound 0.316 µM): > 3000 nM
- IC50 (second compound 1 µM): > 3000 nM
- IC50 (second compound 3.16 µM): 2200 nM
- IC50 (second compound 10 µM): 884 nM
- viability, T/C (second compound 0.1 µM, first compound 0.00949 µM): 127%
- viability, T/C (second compound 0.1 µM, first compound 0.03 µM): 182%
- viability, T/C (second compound 0.1 µM, first compound 0.0949 µM): 201%
- viability, T/C (second compound 0.1 µM, first compound 0.3 µM): 141%
- viability, T/C (second compound 0.1 µM, first compound 0.949 µM): 118%
- viability, T/C (second compound 0.1 µM, first compound 3 µM): 102%
- viability, T/C (second compound 0.316 µM, first compound 0.00949 µM): 161%
- viability, T/C (second compound 0.316 µM, first compound 0.03 µM): 223%
- viability, T/C (second compound 0.316 µM, first compound 0.0949 µM): 187%
- viability, T/C (second compound 0.316 µM, first compound 0.3 µM): 137%
- viability, T/C (second compound 0.316 µM, first compound 0.949 µM): 97.3%
- viability, T/C (second compound 0.316 µM, first compound 3 µM): 75.4%
- viability, T/C (second compound 1 µM, first compound 0.00949 µM): 181%
- viability, T/C (second compound 1 µM, first compound 0.03 µM): 201%
- viability, T/C (second compound 1 µM, first compound 0.0949 µM): 144%
- viability, T/C (second compound 1 µM, first compound 0.3 µM): 104%
- viability, T/C (second compound 1 µM, first compound 0.949 µM): 80.4%
- viability, T/C (second compound 1 µM, first compound 3 µM): 66.6%
- viability, T/C (second compound 3.16 µM, first compound 0.00949 µM): 180%
- viability, T/C (second compound 3.16 µM, first compound 0.03 µM): 174%
- viability, T/C (second compound 3.16 µM, first compound 0.0949 µM): 113%
- viability, T/C (second compound 3.16 µM, first compound 0.3 µM): 80.5%
- viability, T/C (second compound 3.16 µM, first compound 0.949 µM): 59%
- viability, T/C (second compound 3.16 µM, first compound 3 µM): 51.7%
- viability, T/C (second compound 10 µM, first compound 0.00949 µM): 177%
- viability, T/C (second compound 10 µM, first compound 0.03 µM): 148%
- viability, T/C (second compound 10 µM, first compound 0.0949 µM): 112%
- viability, T/C (second compound 10 µM, first compound 0.3 µM): 76.7%
- viability, T/C (second compound 10 µM, first compound 0.949 µM): 41.8%
- viability, T/C (second compound 10 µM, first compound 3 µM): 40.5%
